Results from article PMC9301657 (Journal of biochemical and molecular toxicology, 2010).
Where a name gives a salt, the structure may show the parent alone.

Key:
[1] = target: T1, r-SgAChE1 (Schizaphis graminum acetylcholinesterase-1) (Schizaphis graminum, UniProt Q9BMJ1); test: Kinetics of substrate hydrolysis; assay type: biochemical; conditions: for KM of r-SgAChE1 relative to SgAChE purified from the greenbug / Vmax of r-SgAChE1 relative to SgAChE purified from the greenbug: comparison with ref 13; for Km: read-out: KM (Michaelis constant); for Km / Vmax (maximum velocity) / Vmax: room temperature; for Km / Vmax: pH 7.0; for kcat × 10^−3 (turnover rate): values × 10^−3, calculated from molecular mass 64,597 Da and Vmax
[2] = target: T1, r-SgAChE1 (Schizaphis graminum acetylcholinesterase-1); assay type: biochemical
[3] = target: T1, r-SgAChE1 (Schizaphis graminum acetylcholinesterase-1); test: Determination of IC50 for inhibition of purified r-SgAChE1; assay type: biochemical; conditions: room temperature
[4] = test system: SgAChE purified from the greenbug; conditions: read-out: IC50 against SgAChE; native SgAChE; cited from earlier work
[5] = target: T1, r-SgAChE1 (Schizaphis graminum acetylcholinesterase-1); test: Inhibitory kinetic constants; assay type: biochemical; conditions: for k2 (unimolecular rate constant) / ki / ki (bimolecular reaction constant) / ki (bimolecular reaction constant, k2/Kd): ATC substrate, room temperature
[6] = test system: SgAChE purified from the greenbug; conditions: read-out: KM toward SgAChE; native SgAChE; cited from earlier work

T1 sequence (Q9BMJ1 98-659): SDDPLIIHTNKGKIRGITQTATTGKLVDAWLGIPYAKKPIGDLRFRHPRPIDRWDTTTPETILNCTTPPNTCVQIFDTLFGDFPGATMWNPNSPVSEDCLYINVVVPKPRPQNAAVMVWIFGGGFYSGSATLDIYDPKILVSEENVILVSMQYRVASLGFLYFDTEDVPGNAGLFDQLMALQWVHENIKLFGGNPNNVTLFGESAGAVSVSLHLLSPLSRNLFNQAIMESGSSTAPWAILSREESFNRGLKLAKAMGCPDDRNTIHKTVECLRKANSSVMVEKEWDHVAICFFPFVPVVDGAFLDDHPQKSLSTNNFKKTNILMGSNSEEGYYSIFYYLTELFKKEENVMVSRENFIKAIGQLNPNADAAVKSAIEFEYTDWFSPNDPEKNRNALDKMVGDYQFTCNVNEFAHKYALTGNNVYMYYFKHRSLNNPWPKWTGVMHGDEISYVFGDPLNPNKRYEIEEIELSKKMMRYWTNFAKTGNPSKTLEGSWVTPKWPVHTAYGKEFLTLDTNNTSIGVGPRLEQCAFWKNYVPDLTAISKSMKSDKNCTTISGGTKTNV

| Compound | KM of r-SgAChE1 relative to SgAChE purified from the greenbug [1] [fold] | Vmax of r-SgAChE1 relative to SgAChE purified from the greenbug [1] [fold] | Km [1] [µM] | Vmax (maximum velocity) [1] [U/mg] | Vmax [1] [U/mg Protein] | k2 (unimolecular rate constant) [5] [min⁻¹] | ki [5] [M⁻¹ s⁻¹] | other results |
| --- | --- | --- | --- | --- | --- | --- | --- | --- |
| CC(=O)SCC[N+](C)(C)C.[I-] [ATC, Acetylthiocholine iodide] | 1.53 | 1.7 | 88.3 ± 9.6 | 133.2 ± 1.6 | 133.2 ± 1.6 | – | – | kcat × 10^−3 (turnover rate) [1]: 8.60 ± 0.11 min^−1; ATC concentration above which enzymatic activity is inhibited ([2]; substrate inhibition): above 10 mM |
| CC(=O)SC(C)C[N+](C)(C)C.[I-] (stereo not drawn) [AβMTC, acetyl(β-methyl)thiocholine iodide] | 1.88 | 1.6 | 114 ± 12.5 | 106.4 ± 3.0 | 106.4 ± 3.0 | – | – | kcat × 10^−3 (turnover rate) [1]: 6.88 ± 0.20 min^−1 |
| CCCC(=O)SCC[N+](C)(C)C.[I-] [BTC, S-butyrylthiocholine iodide] | 6.02 | 1.9 | 201 ± 21 | 4.4 ± 0.1 | 4.4 ± 0.1 | – | – | – |
| C=CC[N+](C)(C)c1ccc(CCC(=O)CCc2ccc([N+](C)(C)CC=C)cc2)cc1 [BW284C51, 1,5-bis(4-allyldimethylammoniumphenyl)-pentan-3-one dibromide] | – | – | – | – | – | – | – | IC50 ([3]; 5 min incubation): 1660 ± 2 nM; IC50 [4]: 140 nM |
| CNC(=O)Oc1cccc2ccccc12 [Carbaryl, carbaryl] | – | – | – | – | – | 0.99 ± 0.01 | 1080 ± 67 | IC50 ([3]; IC50, 5 min incubation): 940 ± 5 nM; Kd [5]: 15600 ± 2900 nM |
| CNC(=O)Oc1ccc2c(c1)[C@]1(C)CCN(C)[C@@H]1N2C.CNC(=O)Oc1ccc2c(c1)[C@]1(C)CCN(C)[C@@H]1N2C.O=S(=O)(O)O [Eserine, eserine hemisulfate] | – | – | – | – | – | 1.58 ± 0.04 | 1670 ± 267 | IC50 ([3]; 5 min incubation): 199 ± 4 nM; IC50 ([3]; 5 min incubation, listed as eserine): 200 nM; ki (bimolecular reaction constant) [5]: 1.00 ± 0.16 × 10^5 M^−1 min^−1; ki (bimolecular reaction constant, k2/Kd) [5]: 1.00 ± 0.16 ×10^−5 M^−1 min^−1; ki (bimolecular reaction constant) ([5]; listed as eserine): (1.00 ± 0.16) × 10^5 M^−1 min^−1; IC50 [4]: 480 nM |
| CCN(CC)C(C)CN1c2ccccc2Sc2ccccc21 (stereo not drawn) [Ethopropazine, ethopropazine hydrochloride] | – | – | – | – | – | – | – | IC50 ([3]; IC50, 5 min incubation): 102000 nM |
| CCOC(=O)CC(SP(=O)(OC)OC)C(=O)OCC (stereo not drawn) [Malaoxon, malaoxon] | – | – | – | – | – | 1.59 ± 0.02 | 7830 ± 217 | IC50 ([3]; IC50, 5 min incubation): 61 nM; Kd [5]: 3400 ± 100 nM; k2 (unimolecular rate constant) ([5]; listed as malaoxon): 1.59 min⁻¹ |
| CCC(=O)SCC[N+](C)(C)C.[I-] [PTC, propionylthio-choline iodide] | 2.20 | 2.0 | 68.9 ± 7.8 | 76.7 ± 1.0 | 76.7 ± 1.0 | – | – | kcat × 10^−3 (turnover rate) [1]: 4.95 ± 0.07 min^−1; Km [6]: 31.3 ± 3.7 µM |
| CCOP(=O)(OCC)Oc1ccc([N+](=O)[O-])cc1 [Paraoxon] | – | – | – | – | – | 2.76 ± 0.25 | 15100 ± 383 | ki (bimolecular reaction constant, k2/Kd) [5]: 9.06 ± 0.23 ×10^−5 M^−1 min^−1; k2 (unimolecular rate constant) ([5]; listed as paraoxon): 2.76 min⁻¹ |
| CC(=O)O [acetate] | – | – | – | – | – | – | – | influence on hydrolytic activity ([2]; range from 1 μM to 100 mM): not much influenced |
| C[N+](C)(C)CCO [choline, choline chloride] | – | – | – | – | – | – | – | choline concentration above which the enzyme is inhibited [2]: higher than 20 mM |
